Data published in patent US20240228555A9, “ANTIMICROBIAL PEPTIDOMIMETICS” (Basilea Pharmaceutica International AG, Allschwil, priority 2020, published 2024).
Where a SMILES comes first, the peptide text is derived from it.

Tests used:
[1] = system: Escherichia coli ATCC 25922; settings: ATCC 25922
In short: (§1)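 First, bacterial colonies are suspended in saline and adjusted to 0.5 McFarland. Next, the suspension is diluted into cation-adjusted Mueller-Hinton II broth (approx. 5×10^5 CFU/mL). Finally, it is added to two-fold serially diluted peptide, with polysorbate 80 at 0.002% final.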

[2] = system: Escherichia coli MCR-1 Af 45; settings: Mueller-Hinton broth II, no visible growth after 18-20 hours at 35° C.
In short: as §1

[3] = system: Klebsiella pneumoniae SSI3010; settings: SSI3010
In short: as §1

[4] = system: human red blood cells (hRBC); format: cell-based; settings: red cells of human, 1 h, 0.2 g/L
In short: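 Percent lysis was derived from supernatant absorbance at 540 nm relative to full lysis by 2.5% Triton X-100 (PBS defines 0%). Compounds, 200 μg/mL, were exposed for 1 h at 37° C to a 20% (v/v) suspension of washed human red cells.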

| Structure (SMILES) | Escherichia coli ATCC 25922 MIC [1] | Escherichia coli MCR-1 Af 45 MIC [2] | Klebsiella pneumoniae SSI3010 MIC [3] | Hemolysis at 0.2 g/L [4] |
| --- | --- | --- | --- | --- |
| CC[C@H](C)[C@@H]1NC(=O)[C@@H](NC(=O)[C@H](Cc2ccc(O)cc2)NC(=O)[C@@H](NC(=O)[C@@H](NC(=O)[C@@H]2C[C@@H](O)CN2C(=O)[C@@H](N)C(C)C)[C@@H](C)CC)[C@@H](C)O)C(C)(C)SSC[C@@H](C(=O)N[C@@H](CCN)C(=O)N[C@@H](CCCNC(=N)N)C(=O)N[C@@H](Cc2ccc(O)cc2)C(=O)O)NC(=O)[C@H](CCCN)NC(=O)[C@@H](CCN)NC(=O)[C@H]([C@@H](C)O)NC(=O)[C@H](CCN)NC(=O)[C@H](CCCNC(=N)N)NC1=O [Example 123, Val-Hyp-Ile-Thr-Tyr-Pen-Ile-Arg-Dab-Thr-^DDab-Orn-Cys-Dab-Arg-Tyr] (HELM PEPTIDE1{V.[Hyp].I.T.Y.[Pen].I.R.[Dab].T.[NCC[C@@H](N[*:1])C(=O)[*:2]].[Orn].C.[Dab].R.Y}$PEPTIDE1,PEPTIDE1,6:R3-13:R3$$$V2.0) | 0.0625 µg/mL | 0.125 µg/mL | 0.125 µg/mL | <1% |
| CC[C@H](C)[C@H](NC(=O)[C@@H](NC(=O)[C@@H]1C[C@@H](O)CN1C(=O)[C@@H](N)C(C)C)[C@@H](C)CC)C(=O)N[C@@H](Cc1ccc(O)cc1)C(=O)N[C@@H]1C(=O)N[C@@H](CC(N)=O)C(=O)N[C@@H](CCCNC(=N)N)C(=O)N[C@@H](CCCNC(N)=O)C(=O)N[C@@H]([C@@H](C)O)C(=O)N[C@H](CCN)C(=O)N[C@@H](CCCCN)C(=O)N[C@H](C(=O)N[C@@H](CCN)C(=O)N[C@@H](CCCNC(=N)N)C(=O)N[C@@H](Cc2ccc(O)cc2)C(=O)O)CSSC1(C)C [Example 124, Val-Hyp-Ile-Ile-Tyr-Pen-Asn-Arg-Cit-Thr-^DDab-Lys-Cys-Dab-Arg-Tyr] (HELM PEPTIDE1{V.[Hyp].I.I.Y.[Pen].N.R.[Cit].T.[NCC[C@@H](N[*:1])C(=O)[*:2]].K.C.[Dab].R.Y}$PEPTIDE1,PEPTIDE1,6:R3-13:R3$$$V2.0) | 0.25 µg/mL | 0.25 µg/mL | 0.5 µg/mL | <1% |
| CC[C@H](C)[C@H](NC(=O)[C@@H]1C[C@@H](O)CN1C(=O)[C@@H](N)C(C)C)C(=O)N[C@@H](CCCCNC)C(=O)N[C@@H](Cc1ccc(O)cc1)C(=O)N[C@@H]1C(=O)N[C@@H](CC(N)=O)C(=O)N[C@@H](CCCNC(=N)N)C(=O)N[C@@H](CCN)C(=O)N[C@@H]([C@@H](C)O)C(=O)N[C@H](CCN)C(=O)N[C@@H](CCCCN)C(=O)N[C@H](C(=O)N[C@@H](CCN)C(=O)N[C@@H](CCCNC(=N)N)C(=O)N[C@@H](Cc2ccc(O)cc2)C(=O)O)CSSC1(C)C [Example 125, Val-Hyp-Ile-Lys(Me)-Tyr-Pen-Asn-Arg-Dab-Thr-^DDab-Lys-Cys-Dab-Arg-Tyr] (HELM PEPTIDE1{V.[Hyp].I.[CNCCCC[C@H](N[*:1])C(=O)[*:2]].Y.[Pen].N.R.[Dab].T.[NCC[C@@H](N[*:1])C(=O)[*:2]].K.C.[Dab].R.Y}$PEPTIDE1,PEPTIDE1,6:R3-13:R3$$$V2.0) | 0.125 µg/mL | 0.03125 µg/mL | 0.5 µg/mL | <1% |
| CC[C@H](C)[C@H](NC(=O)[C@@H]1C[C@@H](O)CN1C(=O)[C@@H](N)C(C)C)C(=O)N[C@H](C(=O)N[C@@H](Cc1ccc(O)cc1)C(=O)N[C@@H]1C(=O)N[C@@H](CC(N)=O)C(=O)N[C@@H](CCCNC(=N)N)C(=O)N[C@@H](CCN)C(=O)N[C@@H]([C@@H](C)O)C(=O)N[C@H](CCN)C(=O)N[C@@H](CCCCN)C(=O)N[C@H](C(=O)N[C@@H](CCN)C(=O)N[C@@H](CCCNC(=N)N)C(=O)N[C@@H](Cc2ccc(O)cc2)C(=O)O)CSSC1(C)C)C(C)(C)O [Example 126, Val-Hyp-Ile-Val(3OH)-Tyr-Pen-Asn-Arg-Dab-Thr-^DDab-Lys-Cys-Dab-Arg-Tyr] (HELM PEPTIDE1{V.[Hyp].I.[CC(C)(O)[C@H](N[*:1])C(=O)[*:2]].Y.[Pen].N.R.[Dab].T.[NCC[C@@H](N[*:1])C(=O)[*:2]].K.C.[Dab].R.Y}$PEPTIDE1,PEPTIDE1,6:R3-13:R3$$$V2.0) | 0.0625 µg/mL | 0.0625 µg/mL | 0.125 µg/mL | <1% |
| CC[C@H](C)[C@H](NC(=O)[C@@H]1CC(F)(F)CN1C(=O)[C@@H](N)C(C)C)C(=O)N[C@H](C(=O)N[C@@H](Cc1ccc(O)cc1)C(=O)N[C@@H]1C(=O)N[C@@H](CC(N)=O)C(=O)N[C@@H](CCCNC(=N)N)C(=O)N[C@@H](CCN)C(=O)N[C@@H]([C@@H](C)O)C(=O)N[C@H](CCN)C(=O)N[C@@H](CCCCN)C(=O)N[C@H](C(=O)N[C@@H](CCN)C(=O)N[C@@H](CCCNC(=N)N)C(=O)N[C@@H](Cc2ccc(O)cc2)C(=O)O)CSSC1(C)C)[C@@H](C)O [Example 127, Val-Pro(4,4F2)-Ile-Thr-Tyr-Pen-Asn-Arg-Dab-Thr-^DDab-Lys-Cys-Dab-Arg-Tyr] (HELM PEPTIDE1{V.[O=C([C@@H]1CC(F)(F)CN1[*:1])[*:2]].I.T.Y.[Pen].N.R.[Dab].T.[NCC[C@@H](N[*:1])C(=O)[*:2]].K.C.[Dab].R.Y}$PEPTIDE1,PEPTIDE1,6:R3-13:R3$$$V2.0) | 0.25 µg/mL | 0.125 µg/mL | 0.5 µg/mL | <1% |
| CC[C@H](C)[C@H](NC(=O)[C@@H]1C=CCN1C(=O)[C@@H](N)C(C)C)C(=O)N[C@H](C(=O)N[C@@H](Cc1ccc(O)cc1)C(=O)N[C@@H]1C(=O)N[C@@H](CC(N)=O)C(=O)N[C@@H](CCCNC(=N)N)C(=O)N[C@@H](CCN)C(=O)N[C@@H]([C@@H](C)O)C(=O)N[C@H](CCN)C(=O)N[C@@H](CCCCN)C(=O)N[C@H](C(=O)N[C@@H](CCN)C(=O)N[C@@H](CCCNC(=N)N)C(=O)N[C@@H](Cc2ccc(O)cc2)C(=O)O)CSSC1(C)C)[C@@H](C)O [Example 128, Val-Pro(3,4dehydro)-Ile-Thr-Tyr-Pen-Asn-Arg-Dab-Thr-^DDab-Lys-Cys-Dab-Arg-Tyr] (HELM PEPTIDE1{V.[O=C([C@@H]1C=CCN1[*:1])[*:2]].I.T.Y.[Pen].N.R.[Dab].T.[NCC[C@@H](N[*:1])C(=O)[*:2]].K.C.[Dab].R.Y}$PEPTIDE1,PEPTIDE1,6:R3-13:R3$$$V2.0) | 0.125 µg/mL | 0.125 µg/mL | 0.25 µg/mL | <1% |
| CC[C@H](C)[C@H](NC(=O)[C@@H]1C[C@@H](Oc2ccccc2)CN1C(=O)[C@@H](N)C(C)C)C(=O)N[C@H](C(=O)N[C@@H](Cc1ccc(O)cc1)C(=O)N[C@@H]1C(=O)N[C@@H](CC(N)=O)C(=O)N[C@@H](CCCNC(=N)N)C(=O)N[C@@H](CCN)C(=O)N[C@@H]([C@@H](C)O)C(=O)N[C@H](CCN)C(=O)N[C@@H](CCCCN)C(=O)N[C@H](C(=O)N[C@@H](CCN)C(=O)N[C@@H](CCCNC(=N)N)C(=O)N[C@@H](Cc2ccc(O)cc2)C(=O)O)CSSC1(C)C)[C@@H](C)O [Example 129, Val-Pro(4,4F2)-Ile-Thr-Tyr-Pen-Asn-Arg-Dab-Thr-^DDab-Lys-Cys-Dab-Arg-Tyr] (HELM PEPTIDE1{V.[O=C([C@@H]1C[C@@H](Oc2ccccc2)CN1[*:1])[*:2]].I.T.Y.[Pen].N.R.[Dab].T.[NCC[C@@H](N[*:1])C(=O)[*:2]].K.C.[Dab].R.Y}$PEPTIDE1,PEPTIDE1,6:R3-13:R3$$$V2.0) | 0.125 µg/mL | 0.0625 µg/mL | 0.5 µg/mL | <1% |
